pIC50: −log10 of the molar value. Read-outs that look alike come from different tables or passages of the source.
Legend:
[1] = molecular target: hr 5-HTT (Homo sapiens, UniProt P31645); test: receptor profile (Table S4); format: binding
[2] = molecular target: hr 5-HT2A antag (Homo sapiens, UniProt P28223); test: receptor profile (Table S4); format: biochemical
[3] = molecular target: wild-type (PSMB4^WT) L. tarentolae proteasome (Leishmania tarentolae, UniProt A0A640KTY7+A0A640KW57); test: chymotrypsin-like activity of purified wild-type L. tarentolae proteasome; format: biochemical; conditions: n = 3 technical replicates
Chain of wild-type (PSMB4^WT) L. tarentolae proteasome (A0A640KW57 100-302): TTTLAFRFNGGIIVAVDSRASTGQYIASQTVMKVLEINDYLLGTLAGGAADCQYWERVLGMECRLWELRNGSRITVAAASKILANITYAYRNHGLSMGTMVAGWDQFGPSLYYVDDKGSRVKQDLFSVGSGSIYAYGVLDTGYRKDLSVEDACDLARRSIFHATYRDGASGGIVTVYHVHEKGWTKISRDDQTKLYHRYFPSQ
Chain of wild-type (PSMB4^WT) L. tarentolae proteasome (A0A640KTY7 1-206): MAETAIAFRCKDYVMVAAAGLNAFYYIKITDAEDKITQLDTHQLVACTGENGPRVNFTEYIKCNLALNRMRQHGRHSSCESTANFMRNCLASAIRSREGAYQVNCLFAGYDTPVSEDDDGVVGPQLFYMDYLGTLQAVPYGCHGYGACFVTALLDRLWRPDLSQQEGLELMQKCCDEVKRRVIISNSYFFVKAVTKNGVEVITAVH

[4] = molecular target: T1, h AdT (Homo sapiens, UniProt Q99808); test: receptor profile (Table S4); format: binding
T1 sequence (Q99808 2-456 limits assumed): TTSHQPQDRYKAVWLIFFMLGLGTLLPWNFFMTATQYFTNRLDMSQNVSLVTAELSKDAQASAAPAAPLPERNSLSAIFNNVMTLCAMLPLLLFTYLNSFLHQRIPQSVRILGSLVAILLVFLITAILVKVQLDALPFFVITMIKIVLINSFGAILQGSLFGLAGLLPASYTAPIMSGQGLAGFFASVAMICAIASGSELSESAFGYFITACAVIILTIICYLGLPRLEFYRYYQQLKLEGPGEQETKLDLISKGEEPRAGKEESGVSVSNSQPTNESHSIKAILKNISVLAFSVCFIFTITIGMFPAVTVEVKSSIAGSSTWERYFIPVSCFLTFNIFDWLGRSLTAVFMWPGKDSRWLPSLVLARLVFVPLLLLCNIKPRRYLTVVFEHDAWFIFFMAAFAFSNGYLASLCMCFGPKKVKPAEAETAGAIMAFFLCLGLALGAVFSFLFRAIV

[5] = metabolite profile in rat hepatocytes; format: in vitro ADME; conditions: 10 μM of 1 for 4 h, UV 250 nm, normalized to largest peak
[6] = molecular target: T2, hr PPARg antag (Homo sapiens, UniProt P37231); test: receptor profile (Table S4); format: biochemical
T2 sequence (P37231 1-505): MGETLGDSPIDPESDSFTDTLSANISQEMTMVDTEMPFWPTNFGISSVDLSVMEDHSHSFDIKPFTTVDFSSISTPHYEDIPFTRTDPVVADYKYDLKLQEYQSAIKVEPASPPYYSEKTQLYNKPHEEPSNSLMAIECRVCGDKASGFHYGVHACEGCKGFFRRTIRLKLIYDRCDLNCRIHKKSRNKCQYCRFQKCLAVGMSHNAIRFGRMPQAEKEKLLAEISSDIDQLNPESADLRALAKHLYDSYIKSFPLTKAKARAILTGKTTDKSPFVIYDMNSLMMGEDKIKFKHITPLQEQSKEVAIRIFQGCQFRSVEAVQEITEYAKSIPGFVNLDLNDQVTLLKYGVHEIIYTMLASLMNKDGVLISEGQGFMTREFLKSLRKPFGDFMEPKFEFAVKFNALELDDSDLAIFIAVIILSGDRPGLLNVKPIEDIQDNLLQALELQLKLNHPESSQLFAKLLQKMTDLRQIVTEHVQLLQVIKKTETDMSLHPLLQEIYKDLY

[7] = in vivo micronucleus (MNT) study in rat
[8] = molecular target: hr M3 (Homo sapiens, UniProt P20309); test: receptor profile (Table S4); format: binding
Chain of hr M3 (P20309 whole entry): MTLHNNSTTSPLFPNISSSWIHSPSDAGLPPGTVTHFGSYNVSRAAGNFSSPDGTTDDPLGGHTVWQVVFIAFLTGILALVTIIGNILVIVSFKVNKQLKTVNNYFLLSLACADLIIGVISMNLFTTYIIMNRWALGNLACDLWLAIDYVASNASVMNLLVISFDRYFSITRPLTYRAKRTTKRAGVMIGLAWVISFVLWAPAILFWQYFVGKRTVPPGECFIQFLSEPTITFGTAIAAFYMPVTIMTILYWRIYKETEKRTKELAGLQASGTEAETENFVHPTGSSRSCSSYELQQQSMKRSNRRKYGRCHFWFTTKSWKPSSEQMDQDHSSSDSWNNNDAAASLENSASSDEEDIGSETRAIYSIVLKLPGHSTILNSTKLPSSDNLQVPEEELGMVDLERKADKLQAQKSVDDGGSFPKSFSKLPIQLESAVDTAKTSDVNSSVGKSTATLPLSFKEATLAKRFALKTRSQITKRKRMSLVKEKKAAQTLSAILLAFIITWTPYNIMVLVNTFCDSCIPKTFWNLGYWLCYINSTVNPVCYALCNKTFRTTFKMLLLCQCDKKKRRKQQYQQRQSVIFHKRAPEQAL

[9] = molecular target: T3, hr M1 (Homo sapiens, UniProt P11229); test: receptor profile (Table S4); format: binding
T3 sequence (P11229 1-460): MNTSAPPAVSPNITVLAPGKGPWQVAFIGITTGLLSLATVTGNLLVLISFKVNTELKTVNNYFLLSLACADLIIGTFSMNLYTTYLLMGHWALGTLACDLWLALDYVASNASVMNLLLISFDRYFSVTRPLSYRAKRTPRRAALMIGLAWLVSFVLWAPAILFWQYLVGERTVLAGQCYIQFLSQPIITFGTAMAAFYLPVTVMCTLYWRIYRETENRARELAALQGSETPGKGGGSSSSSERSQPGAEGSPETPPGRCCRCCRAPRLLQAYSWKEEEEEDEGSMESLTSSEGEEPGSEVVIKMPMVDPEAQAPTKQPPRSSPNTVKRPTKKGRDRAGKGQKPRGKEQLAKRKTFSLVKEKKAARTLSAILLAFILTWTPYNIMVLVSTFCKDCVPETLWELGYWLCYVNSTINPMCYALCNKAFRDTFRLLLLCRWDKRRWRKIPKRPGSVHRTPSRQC

[10] = in vitro AMES; format: cell-based
[11] = pharmacokinetics in cynomolgus monkey; format: in vivo; conditions: male cynomolgus monkey
Protocol: In Vivo Intravenous PK Study in Non-human Primates. The IV PK study in non-human primates was carried out at Covance research facility in Greenfield, Indiana. The research facility is accredited by AAALAC (Association for Assessment and Accreditation of Laboratory Animal Care). The male Cynomolgus monkeys were approximately 4.5 years of age and weighed 4.2 to 5.0 kg. 1 was administered […]
75% polyethylene glycol (PEG300) as described in the earlier section. Doses were administered once by intravenous injection via the saphenous vein at a dose of 0.3 mg/kg with a dosing volume of 0.1 ml/kg.
Clinical observations and food consumption determinations were performed on all animals. Blood samples for PK analysis were collected from all animals via the femoral vein approximately 0.083, 0.25, […]
In Vivo Oral PK Study in Non-human Primates. The PO PK study in non-human primates was conducted at a Novartis facility using Non-naïve male Cynomolgus monkeys weighing 3.8 to 4.0 kg. The monkeys were fasted overnight and fed 2 hours post-dose. 1 was formulated in a suspension of 0.5% […]
gavaged with 5 mL/kg of the suspension for a total dose of 10 mg/kg. The gavage tubing was flushed with 5 mL of water to ensure the gavage tubing was cleared of the formulation. Blood samples for PK analysis were collected from all animals via the saphenous veins approximately 0.25, 0.5, 1, 2, 4, 7, 24, 48, and 72 hours post-dose.

[12] = molecular target: rVMAT2 uptake (Rattus norvegicus, UniProt Q01827); test: receptor profile (Table S4); format: biochemical
Chain of rVMAT2 uptake (Q01827 whole entry): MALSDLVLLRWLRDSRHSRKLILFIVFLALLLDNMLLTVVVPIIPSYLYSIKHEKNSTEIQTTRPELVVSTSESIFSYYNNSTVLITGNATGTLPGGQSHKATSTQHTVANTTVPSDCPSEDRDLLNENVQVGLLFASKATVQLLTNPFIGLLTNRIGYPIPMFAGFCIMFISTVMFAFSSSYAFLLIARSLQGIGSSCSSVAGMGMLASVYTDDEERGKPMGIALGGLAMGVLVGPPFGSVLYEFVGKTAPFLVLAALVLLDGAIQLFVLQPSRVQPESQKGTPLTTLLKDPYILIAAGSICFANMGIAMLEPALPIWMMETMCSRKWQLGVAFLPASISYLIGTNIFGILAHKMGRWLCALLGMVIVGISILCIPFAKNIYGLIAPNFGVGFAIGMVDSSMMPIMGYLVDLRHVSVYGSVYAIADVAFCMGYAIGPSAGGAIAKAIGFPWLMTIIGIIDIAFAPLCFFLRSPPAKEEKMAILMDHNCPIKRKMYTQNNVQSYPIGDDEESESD

Chain of hr 5-HTT (P31645 whole entry): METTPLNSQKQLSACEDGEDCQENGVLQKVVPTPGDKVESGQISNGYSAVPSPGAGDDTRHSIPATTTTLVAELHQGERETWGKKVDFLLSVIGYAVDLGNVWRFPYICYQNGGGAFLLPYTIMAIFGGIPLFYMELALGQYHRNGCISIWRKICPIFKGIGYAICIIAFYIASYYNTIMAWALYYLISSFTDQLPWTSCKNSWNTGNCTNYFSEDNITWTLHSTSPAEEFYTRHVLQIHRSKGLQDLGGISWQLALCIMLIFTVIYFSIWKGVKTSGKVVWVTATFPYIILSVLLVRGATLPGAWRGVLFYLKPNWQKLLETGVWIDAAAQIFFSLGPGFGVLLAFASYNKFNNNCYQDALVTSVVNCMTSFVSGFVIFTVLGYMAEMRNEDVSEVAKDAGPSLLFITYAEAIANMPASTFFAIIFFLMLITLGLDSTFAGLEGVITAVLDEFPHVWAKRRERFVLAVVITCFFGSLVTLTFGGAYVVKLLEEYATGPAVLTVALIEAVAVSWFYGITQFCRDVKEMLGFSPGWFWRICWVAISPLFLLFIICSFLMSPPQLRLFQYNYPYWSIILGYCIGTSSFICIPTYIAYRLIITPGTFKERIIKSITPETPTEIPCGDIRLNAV
Chain of hr 5-HT2A antag (P28223 whole entry): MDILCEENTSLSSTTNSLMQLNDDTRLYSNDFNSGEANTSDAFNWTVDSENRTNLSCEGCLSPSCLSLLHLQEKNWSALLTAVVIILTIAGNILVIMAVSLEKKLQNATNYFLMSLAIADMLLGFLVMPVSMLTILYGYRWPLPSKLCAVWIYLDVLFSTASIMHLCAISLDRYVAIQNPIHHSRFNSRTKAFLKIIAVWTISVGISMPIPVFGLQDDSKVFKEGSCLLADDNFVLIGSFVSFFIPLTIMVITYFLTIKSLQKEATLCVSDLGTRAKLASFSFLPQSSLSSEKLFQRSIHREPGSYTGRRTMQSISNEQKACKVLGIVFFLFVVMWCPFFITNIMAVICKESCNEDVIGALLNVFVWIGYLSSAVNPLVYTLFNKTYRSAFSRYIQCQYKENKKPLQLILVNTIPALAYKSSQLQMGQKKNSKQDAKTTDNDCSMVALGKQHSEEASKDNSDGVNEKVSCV

Work on Cc1nc(C)c(C(=O)Nc2ccc(F)c(-c3nc4ncc(-c5ncccc5C)cn4n3)c2)o1 [compound 1, N-(4-Fluoro-3-(6-(3-methylpyridin-2-yl)-[1,2,4]triazolo[1,5-a]pyrimidin-2-yl)phenyl)-2,4-dimethyloxazole-5-carboxamide] yielded an EC50/IC50 ([1]; hr 5-HTT) greater than 30 µM, an inhibition at 10 µM ([1]; read-out: % inh/act @ 10 µM) of 17% and an inhibition at 30 µM ([1]; read-out: % inh/act @ 30 µM) of 12%. The EC50/IC50 ([2]; hr 5-HT2A antag) was greater than 10 µM, the inhibition at 10 µM ([2]; read-out: % inh/act @ 10 µM) was 34% and the pIC50 [3] was 7.30. It also gave an EC50/IC50 ([4]; h AdT) greater than 30 µM, an inhibition at 10 µM ([4]; read-out: % inh/act @ 10 µM) of 28% and an inhibition at 30 µM ([4]; read-out: % inh/act @ 30 µM) of 42%. The abundance rat [5] was “+++ (+++ > 75%)”, the EC50/IC50 ([6]; hr PPARg antag) was greater than 30 µM and the inhibition at 10 µM ([6]; read-out: % inh/act @ 10 µM) was -5%. For the same molecule, the inhibition at 30 µM ([6]; read-out: % inh/act @ 30 µM) was 16%, the “micronucleus (MNT), risk of clastogenicity” value [7] was “did not indicate a risk” and the EC50/IC50 ([8]; hr M3) was greater than 30 µM. It also gave an inhibition at 10 µM ([8]; read-out: % inh/act @ 10 µM) of 17%, an inhibition at 30 µM ([8]; read-out: % inh/act @ 30 µM) of 25% and an EC50/IC50 ([9]; hr M1) greater than 30 µM. The inhibition at 10 µM ([9]; read-out: % inh/act @ 10 µM) was 25%, the inhibition at 30 µM ([9]; read-out: % inh/act @ 30 µM) was 26% and the “AMES, risk of mutagenicity” value [10] was “did not indicate a risk”. The MRT ([11]; in vivo, 0.3 mg/kg IV) was 9.7 h, the bioavailability ([11]; in vivo, 0.3 mg/kg IV and 10 mg/kg PO) was 27% and the clearance ([11]; in vivo, 0.3 mg/kg IV, fumarate salt) was 0.054 L/h/kg. The half-life ([11]; in vivo, 0.3 mg/kg IV, read-out: T1/2 IV (converted)) was 9.7 h, the Vd ([11]; in vivo, 0.3 mg/kg IV, read-out: Vss) was 0.5 L/kg and the “DN AUC PO” value ([11]; 10 mg/kg PO, dose-normalized) was 12 µM·h. For the same molecule, the “DN Cmax PO” value ([11]; 10 mg/kg PO, dose-normalized) was 1.0 µM, the EC50/IC50 ([12]; rVMAT2 uptake) was 3.9 µM and the inhibition at 10 µM ([12]; read-out: % inh/act @ 10 µM) was 64%. For the same molecule, the inhibition at 30 µM ([12]; read-out: % inh/act @ 30 µM) was 78% and the inhibition at 10 µM ([12]; read-out: VMAT2 inhibition) was 61%.
